Test results: patent US11542304B2, “Multimeric bicyclic peptide ligands” (BicycleTx Limited, priority 2018, dated 2023)

Molecular target: CD137 (Homo sapiens, UniProt Q07011)
Assay: CD137 Promega reporter cell activity assay (NF-κB luciferase in Jurkat cells)
Conditions: for Average Fold EC50 Improvement relative to CD137L: Average EC50 for CD137L = 14.2 nM; for Average Relative Fold Induction relative to CD137L: Average fold induction for CD137L = 4.0

CD137, sequence (Q07011 24-255): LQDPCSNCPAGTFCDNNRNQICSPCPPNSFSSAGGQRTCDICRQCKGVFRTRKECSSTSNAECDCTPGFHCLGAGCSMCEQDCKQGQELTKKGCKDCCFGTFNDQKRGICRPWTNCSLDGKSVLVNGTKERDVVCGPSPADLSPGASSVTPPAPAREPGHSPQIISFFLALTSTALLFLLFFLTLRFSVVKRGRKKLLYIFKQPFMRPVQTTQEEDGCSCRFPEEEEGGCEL

| Compound | Average Fold EC50 Improvement relative to CD137L | Average Relative Fold Induction relative to CD137L |
| --- | --- | --- |
| CCCC[C@@H]1NC(=O)[C@H](Cc2ccc(O)cc2)NC(=O)[C@@H]2CCCN2C(=O)[C@H](CC(=O)O)NC(=O)[C@H](C)NC(=O)[C@H](CCCCNC(=O)OCC2C3CCc4nnn(CCOCCOCCOCCOCCOCCOCCOCCOCCOCCOCCNC(=O)CCOCC(COCCC(=O)NCCOCCOCCOCCOCCOCCOCCOCCOCCOCCOCCn5nnc6c5CCC5C(CC6)C5COC(=O)NCCCC[C@@H]5NC(=O)[C@@H]6CSCCC(=O)N7CN(CN(C7)C(=O)CCSC[C@@H](C(=O)N[C@@H](C)C(N)=O)NC(=O)[C@H](CCCC)NC(=O)[C@H](Cc7ccc(O)cc7)NC(=O)[C@@H]7CCCN7C(=O)[C@H](CC(=O)O)NC(=O)[C@H](C)NC5=O)C(=O)CCSC[C@H](NC(=O)[C@H](C)NC(C)=O)C(=O)N[C@@H]([C@@H](C)CC)C(=O)N[C@@H](CCC(=O)O)C(=O)N[C@@H](CCC(=O)O)C(=O)NCC(=O)N[C@@H](CCC(N)=O)C(=O)N[C@@H](Cc5ccc(O)cc5)C(=O)N6)(COCCC(=O)NCCOCCOCCOCCOCCOCCOCCOCCOCCOCCOCCn5nnc6c5CCC5C(CC6)C5COC(=O)NCCCC[C@@H]5NC(=O)[C@@H]6CSCCC(=O)N7CN(CN(C7)C(=O)CCSC[C@@H](C(=O)N[C@@H](C)C(N)=O)NC(=O)[C@H](CCCC)NC(=O)[C@H](Cc7ccc(O)cc7)NC(=O)[C@@H]7CCCN7C(=O)[C@H](CC(=O)O)NC(=O)[C@H](C)NC5=O)C(=O)CCSC[C@H](NC(=O)[C@H](C)NC(C)=O)C(=O)N[C@@H]([C@@H](C)CC)C(=O)N[C@@H](CCC(=O)O)C(=O)N[C@@H](CCC(=O)O)C(=O)NCC(=O)N[C@@H](CCC(N)=O)C(=O)N[C@@H](Cc5ccc(O)cc5)C(=O)N6)COCCC(=O)NCCOCCOCCOCCOCCOCCOCCOCCOCCOCCOCCn5nnc6c5CCC5C(CC6)C5COC(=O)NCCCC[C@@H]5NC(=O)[C@@H]6CSCCC(=O)N7CN(CN(C7)C(=O)CCSC[C@@H](C(=O)N[C@@H](C)C(N)=O)NC(=O)[C@H](CCCC)NC(=O)[C@H](Cc7ccc(O)cc7)NC(=O)[C@@H]7CCCN7C(=O)[C@H](CC(=O)O)NC(=O)[C@H](C)NC5=O)C(=O)CCSC[C@H](NC(=O)[C@H](C)NC(C)=O)C(=O)N[C@@H]([C@@H](C)CC)C(=O)N[C@@H](CCC(=O)O)C(=O)N[C@@H](CCC(=O)O)C(=O)NCC(=O)N[C@@H](CCC(N)=O)C(=O)N[C@@H](Cc5ccc(O)cc5)C(=O)N6)c4CCC32)NC(=O)[C@@H]2CSCCC(=O)N3CN(CN(C3)C(=O)CCSC[C@@H](C(=O)N[C@@H](C)C(N)=O)NC1=O)C(=O)CCSC[C@H](NC(=O)[C@H](C)NC(C)=O)C(=O)N[C@@H]([C@@H](C)CC)C(=O)N[C@@H](CCC(=O)O)C(=O)N[C@@H](CCC(=O)O)C(=O)NCC(=O)N[C@@H](CCC(N)=O)C(=O)N[C@@H](Cc1ccc(O)cc1)C(=O)N2 (stereo partly drawn) [BCY8147] | 50.58 | 1.04 |
| CCCC[C@@H]1NC(=O)[C@H](Cc2ccc(O)cc2)NC(=O)[C@@H]2CCCN2C(=O)[C@H](CC(=O)O)NC(=O)[C@H](C)NC(=O)[C@H](CCCCNC(=O)OCC2C3CCc4nnn(CCOCCOCCOCCOCCOCCOCCOCCOCCOCCOCCOCCOCCOCCOCCOCCOCCOCCOCCOCCOCCOCCOCCOCCNC(=O)CCOCC(COCCC(=O)NCCOCCOCCOCCOCCOCCOCCOCCOCCOCCOCCOCCOCCOCCOCCOCCOCCOCCOCCOCCOCCOCCOCCOCCn5nnc6c5CCC5C(CC6)C5COC(=O)NCCCC[C@@H]5NC(=O)[C@@H]6CSCCC(=O)N7CN(CN(C7)C(=O)CCSC[C@@H](C(=O)N[C@@H](C)C(N)=O)NC(=O)[C@H](CCCC)NC(=O)[C@H](Cc7ccc(O)cc7)NC(=O)[C@@H]7CCCN7C(=O)[C@H](CC(=O)O)NC(=O)[C@H](C)NC5=O)C(=O)CCSC[C@H](NC(=O)[C@H](C)NC(C)=O)C(=O)N[C@@H]([C@@H](C)CC)C(=O)N[C@@H](CCC(=O)O)C(=O)N[C@@H](CCC(=O)O)C(=O)NCC(=O)N[C@@H](CCC(N)=O)C(=O)N[C@@H](Cc5ccc(O)cc5)C(=O)N6)(COCCC(=O)NCCOCCOCCOCCOCCOCCOCCOCCOCCOCCOCCOCCOCCOCCOCCOCCOCCOCCOCCOCCOCCOCCOCCOCCn5nnc6c5CCC5C(CC6)C5COC(=O)NCCCC[C@@H]5NC(=O)[C@@H]6CSCCC(=O)N7CN(CN(C7)C(=O)CCSC[C@@H](C(=O)N[C@@H](C)C(N)=O)NC(=O)[C@H](CCCC)NC(=O)[C@H](Cc7ccc(O)cc7)NC(=O)[C@@H]7CCCN7C(=O)[C@H](CC(=O)O)NC(=O)[C@H](C)NC5=O)C(=O)CCSC[C@H](NC(=O)[C@H](C)NC(C)=O)C(=O)N[C@@H]([C@@H](C)CC)C(=O)N[C@@H](CCC(=O)O)C(=O)N[C@@H](CCC(=O)O)C(=O)NCC(=O)N[C@@H](CCC(N)=O)C(=O)N[C@@H](Cc5ccc(O)cc5)C(=O)N6)COCCC(=O)NCCOCCOCCOCCOCCOCCOCCOCCOCCOCCOCCOCCOCCOCCOCCOCCOCCOCCOCCOCCOCCOCCOCCOCCn5nnc6c5CCC5C(CC6)C5COC(=O)NCCCC[C@@H]5NC(=O)[C@@H]6CSCCC(=O)N7CN(CN(C7)C(=O)CCSC[C@@H](C(=O)N[C@@H](C)C(N)=O)NC(=O)[C@H](CCCC)NC(=O)[C@H](Cc7ccc(O)cc7)NC(=O)[C@@H]7CCCN7C(=O)[C@H](CC(=O)O)NC(=O)[C@H](C)NC5=O)C(=O)CCSC[C@H](NC(=O)[C@H](C)NC(C)=O)C(=O)N[C@@H]([C@@H](C)CC)C(=O)N[C@@H](CCC(=O)O)C(=O)N[C@@H](CCC(=O)O)C(=O)NCC(=O)N[C@@H](CCC(N)=O)C(=O)N[C@@H](Cc5ccc(O)cc5)C(=O)N6)c4CCC32)NC(=O)[C@@H]2CSCCC(=O)N3CN(CN(C3)C(=O)CCSC[C@@H](C(=O)N[C@@H](C)C(N)=O)NC1=O)C(=O)CCSC[C@H](NC(=O)[C@H](C)NC(C)=O)C(=O)N[C@@H]([C@@H](C)CC)C(=O)N[C@@H](CCC(=O)O)C(=O)N[C@@H](CCC(=O)O)C(=O)NCC(=O)N[C@@H](CCC(N)=O)C(=O)N[C@@H](Cc1ccc(O)cc1)C(=O)N2 (stereo partly drawn) [BCY8148] | 18.71 | 1.20 |
| CCCC[C@@H]1NC(=O)[C@H](Cc2ccc(O)cc2)NC(=O)[C@@H]2CCCN2C(=O)[C@H](CC(=O)O)NC(=O)[C@H](C)NC(=O)[C@H](Cc2ccccc2)NC(=O)[C@@H]2CSCCC(=O)N3CN(CN(C3)C(=O)CCSC[C@@H](C(=O)N[C@@H](C)C(N)=O)NC1=O)C(=O)CCSC[C@H](NC(=O)[C@H](C)NC(=O)OCC1C3CCc4nnn(CCOCCOCCOCCOCCOCCOCCOCCOCCOCCOCCOCCOCCOCCOCCOCCOCCOCCOCCOCCOCCOCCOCCOCCNC(=O)CCOCC(COCCC(=O)NCCOCCOCCOCCOCCOCCOCCOCCOCCOCCOCCOCCOCCOCCOCCOCCOCCOCCOCCOCCOCCOCCOCCOCCn5nnc6c5CCC5C(CC6)C5COC(=O)N[C@@H](C)C(=O)N[C@H]5CSCCC(=O)N6CN7CN(C6)C(=O)CCSC[C@H](NC(=O)[C@H](Cc6ccc(O)cc6)NC(=O)[C@H](CCC(N)=O)NC(=O)CNC(=O)[C@H](CCC(=O)O)NC(=O)[C@H](CCC(=O)O)NC(=O)[C@H]([C@@H](C)CC)NC5=O)C(=O)N[C@@H](Cc5ccccc5)C(=O)N[C@@H](C)C(=O)N[C@@H](CC(=O)O)C(=O)N5CCC[C@H]5C(=O)N[C@@H](Cc5ccc(O)cc5)C(=O)N[C@@H](CCCC)C(=O)N[C@H](C(=O)N[C@@H](C)C(N)=O)CSCCC7=O)(COCCC(=O)NCCOCCOCCOCCOCCOCCOCCOCCOCCOCCOCCOCCOCCOCCOCCOCCOCCOCCOCCOCCOCCOCCOCCOCCn5nnc6c5CCC5C(CC6)C5COC(=O)N[C@@H](C)C(=O)N[C@H]5CSCCC(=O)N6CN7CN(C6)C(=O)CCSC[C@H](NC(=O)[C@H](Cc6ccc(O)cc6)NC(=O)[C@H](CCC(N)=O)NC(=O)CNC(=O)[C@H](CCC(=O)O)NC(=O)[C@H](CCC(=O)O)NC(=O)[C@H]([C@@H](C)CC)NC5=O)C(=O)N[C@@H](Cc5ccccc5)C(=O)N[C@@H](C)C(=O)N[C@@H](CC(=O)O)C(=O)N5CCC[C@H]5C(=O)N[C@@H](Cc5ccc(O)cc5)C(=O)N[C@@H](CCCC)C(=O)N[C@H](C(=O)N[C@@H](C)C(N)=O)CSCCC7=O)COCCC(=O)NCCOCCOCCOCCOCCOCCOCCOCCOCCOCCOCCOCCOCCOCCOCCOCCOCCOCCOCCOCCOCCOCCOCCOCCn5nnc6c5CCC5C(CC6)C5COC(=O)N[C@@H](C)C(=O)N[C@H]5CSCCC(=O)N6CN7CN(C6)C(=O)CCSC[C@H](NC(=O)[C@H](Cc6ccc(O)cc6)NC(=O)[C@H](CCC(N)=O)NC(=O)CNC(=O)[C@H](CCC(=O)O)NC(=O)[C@H](CCC(=O)O)NC(=O)[C@H]([C@@H](C)CC)NC5=O)C(=O)N[C@@H](Cc5ccccc5)C(=O)N[C@@H](C)C(=O)N[C@@H](CC(=O)O)C(=O)N5CCC[C@H]5C(=O)N[C@@H](Cc5ccc(O)cc5)C(=O)N[C@@H](CCCC)C(=O)N[C@H](C(=O)N[C@@H](C)C(N)=O)CSCCC7=O)c4CCC31)C(=O)N[C@@H]([C@@H](C)CC)C(=O)N[C@@H](CCC(=O)O)C(=O)N[C@@H](CCC(=O)O)C(=O)NCC(=O)N[C@@H](CCC(N)=O)C(=O)N[C@@H](Cc1ccc(O)cc1)C(=O)N2 (stereo partly drawn) [BCY8149] | 140.06 | 0.93 |
